The numbers were not newly measured in patent publication US6534508B2, “Methods and compositions for treating infection using optically pure (S)-lomefloxacin” (priority 1991, dated 2003), which cites them from elsewhere.

The series has as its system M. tuberculosis. To be noted: 11 strains resistant to conventional drug therapy; cited from earlier work.

≈ marks a conversion by molar mass, not a printed value.

What is called MIC50 is an inhibitory concentration at the 50% level, which refers to growth in some studies and to a panel of isolates in others. As usually defined, the MIC90 is the lowest concentration that inhibits either 90% of growth or 90% of the strains tested, depending on the study. Regarding `CCn1cc(C(=O)O)c(=O)c2cc(F)c(N3CCNC(C)C3)c(F)c21` (racemic) [LM, 1-ethyl-6,8-difluoro-1,4-dihydro-7-(3-methyl-lpiperazinyl)-4-oxo-3-quinolinecarboxylic acid], the MIC50 was 1.0 µg/mL (≈ 2.85 µM) and the MIC90 is 1.1 µg/mL (≈ 3.13 µM).
